# According to patent US12037324B2, “Biarylmethyl heterocycles” (Université de Montréal, priority 2016, dated 2024):
# Experiments:
# [1] = molecular target: T1, AGTR1 (Homo sapiens, UniProt P30556); assay: DiscoveRx β-arrestin2 recruitment assay (enzyme complementation, Pathunter CHO-K1 AGTR1 β-arrestin cell line); format: cell-based; conditions: DiscoveRx β-arrestin2 recruitment; for DiscoveRx β-arrestin2 Ymax (%): maximal response
# T1 construct: host or cells: Pathunter CHO-K1 AGTR1 β-arrestin cell line (CHO-K1)
# T1 sequence (P30556 1-359): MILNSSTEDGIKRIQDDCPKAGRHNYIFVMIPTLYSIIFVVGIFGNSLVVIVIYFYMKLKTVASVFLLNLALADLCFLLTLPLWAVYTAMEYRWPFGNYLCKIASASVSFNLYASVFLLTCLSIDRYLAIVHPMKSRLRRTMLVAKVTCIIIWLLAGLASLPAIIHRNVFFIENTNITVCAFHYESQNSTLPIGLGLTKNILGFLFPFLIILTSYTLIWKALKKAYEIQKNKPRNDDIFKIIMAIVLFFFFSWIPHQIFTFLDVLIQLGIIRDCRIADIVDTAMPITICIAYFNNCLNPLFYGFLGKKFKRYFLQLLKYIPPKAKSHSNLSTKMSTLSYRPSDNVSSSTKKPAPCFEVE
# Method in brief: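 CHO-K1 cells expressing AGTR1 with β-arrestin2 enzyme-complementation reporter, plated 14-16 h ahead in 1% serum medium, then exposed to compounds for 90 min at 37° C. Chemiluminescence read after 1 h detection. EC50 (agonist) or IC50 (antagonist) from 4-parameter logistic fit; activity as percentage of All maximal effect.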
# [2] = molecular target: T1, AGTR1; assay: DiscoveRx IP1 accumulation assay (HTRF), agonist mode, Pathunter CHO-K1 AGTR1 β-arrestin cell line; format: cell-based; conditions: for EC50: read-out: IP-1 EC50
# Method in brief: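 Agonist mode in CHO-K1 AGTR1 β-arrestin cells plated 14-16 h before; compounds at varying concentrations for 90 min at 37° C, IP1 accumulation read by HTRF (D2-conjugate and anti-IP1 cryptate, 20 min room temperature). EC50 from 4-parameter logistic fit; activity given as percentage of maximal AII effect.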
# [3] = molecular target: T2, hAT1R (Homo sapiens, UniProt P30556); assay: BRET β-arrestin2 biosensor assay, higher receptor expression (hAT1R 5 ng/well), HEK293 cells; format: cell-based; conditions: for EC50: High AT1R Expression
# T2 sequence (P30556 1-359): T1 sequence (P30556 1-359)
# [4] = molecular target: T2, hAT1R; assay: cell-based
# [5] = molecular target: T2, hAT1R; assay: cell-based; conditions: agonist mode; for EC50: read-out: BRET P63 EC50
# [6] = Low AT1R Expression, read-out: BRET β-Arrestin2 Low AT1R Expression EC50
# [7] = section of the 42nd table ending at r951, example numbering restarts after the DiscoveRx section, read-out: β-arrestin2 EC50
SMILES,EC50 [1],DiscoveRx β-arrestin2 Ymax (%) [1],IP-1 Ymax (%) [2],EC50 [2],BRET β-Arrestin2 High AT1R Expression Ymax (%) [3],EC50 [3],BRET β-Arrestin2 Low AT1R Expression Ymax (%) ([4]; Low AT1R Expression),"EC50 [4, 6]",BRET P63 Ymax [5],EC50 [5],"EC50 [4, 7]"
"CCc1nc2c(C)cc(C)nc2n1Cc1ccc(-c2cc(-c3ccccn3)ccc2-c2nn[nH]n2)cc1 [Example 30, 2-Ethyl-5,7-dimethyl-3-((5′-(pyridin-2-yl)-2′-(2H-tetrazol-5-yl)-[1,1′-biphenyl]-4-yl)methyl)-3H-imidazo[4,5-b]pyridine]",4.9 nM,48.0%,12.3%,15.9 nM,87.5%,5.6 nM,72.9%,14.5 nM,23.5%,19.1 nM,–
CCc1nc2c(C)cc(C)nc2n1Cc1ccc(-c2cc(Oc3ncccc3Cl)ccc2-c2nn[nH]n2)cc1 [Example 255],123 nM,26.3%,7.8%,471 nM,80.2%,24.3 nM,–,–,6.0%,22.5 nM,87.8 nM
CCCCC1=NC2(CCCC2)C(=O)N1Cc1ccc(-c2cc(-c3cc(OC)ccn3)ccc2-c2nn[nH]n2)cc1 [Example 141],13.5 nM,31.5%,–,> 100000 nM,88.6%,10 nM,58.9%,40.4 nM,14.9%,13.3 nM,–
CCc1nc2c(C)cc(C)nc2n1Cc1ccc(-c2cc(-c3ccccc3)ccc2-c2nsc(=O)[nH]2)cc1 [Example 245],115 nM,75.5%,12.7%,89.4 nM,88.8%,4.9 nM,–,–,23.3%,27.2 nM,24.1 nM
CCc1nc2c(C)cc(C)nc2n1Cc1ccc(-c2cc(-c3nccs3)ccc2-c2nn[nH]n2)cc1 [Example 56],58.3 nM,20.8%,–,> 100000 nM,63.0%,48.9 nM,14.2%,54 nM,4.0%,42.6 nM,–
CCc1nc2c(C)cc(C)nc2n1Cc1ccc(-c2cc(N3CCCCC3)ccc2-c2nn[nH]n2)cc1 [Example 91],60.6 nM,22.6%,–,> 100000 nM,–,–,–,> 10000 nM,–,> 100000 nM,–
CCc1cn(-c2ccc(-c3nnn[nH]3)c(-c3ccc(Cn4c(CC)nc5c(C)cc(C)nc54)cc3)c2)nn1 [Example 231],28.7 nM,36.8%,8.4%,30.1 nM,–,–,–,–,13.8%,36.2 nM,98.8 nM
CCC1=NC2(CCCC2)C(=O)N1Cc1ccc(-c2cc(-c3cc(C)ccn3)ccc2-c2nn[nH]n2)cc1 [Example 113],14.9 nM,66.3%,17.8%,83.5 nM,–,–,88.6%,9.8 nM,28.6%,17.2 nM,–
CCc1nc2c(C)cc(C)nc2n1Cc1ccc(-c2cc(-c3cc(C(F)F)ccn3)ccc2-c2nn[nH]n2)cc1 [Example 67],19.3 nM,30.9%,10.2%,26.5 nM,–,–,40.7%,14.5 nM,14.3%,7.3 nM,–
"CCCCC1=NC2(CCOC2)C(=O)N1Cc1ccc(-c2cc(-c3ccccc3O)ccc2-c2nnn[nH]2)cc1 (single isomer, unassigned) [Example 150]",13.7 nM,45.6%,17.2%,20.7 nM,–,–,65.7%,76.9 nM,14.6%,105 nM,–
CCc1nc2c(C)cc(C)nc2n1Cc1ncc(-c2cc(-c3ccccc3O)ccc2-c2nnn[nH]2)cn1 [Example 189],9.2 nM,53.0%,12.7%,18.4 nM,–,–,–,–,17.5%,32.1 nM,49.2 nM
CCc1nc2c(C)cc(C)nc2n1Cc1ccc(-c2cc(-c3cc(C)ccn3)ccc2C(=O)O)cc1 [Example 193],52.2 nM,60.7%,25.0%,132 nM,–,–,–,–,29.3%,160 nM,133 nM
CCc1nc2c(C)cc(C)nc2n1Cc1ccc(-c2cc(-n3cnc4ccccc43)ccc2-c2nnn[nH]2)cc1 [Example 222],56.9 nM,42.7%,4.9%,187 nM,–,–,–,–,–,> 100000 nM,98.5 nM
"CCc1nc2c(C)cc(C)nc2n1Cc1ccc(-c2cc(-c3cc(OC)ccn3)ccc2-c2nn[nH]n2)cc1 [Example 62, 2-Ethyl-3-((5′-(4-methoxypyridin-2-yl)-2′-(2H-tetrazol-5-yl)-[1,1′-biphenyl]-4-yl)methyl)-5,7-dimethyl-3H-imidazo[4,5-b]pyridine]",15.1 nM,50.0%,22.7%,29 nM,–,–,74.7%,3.7 nM,35.7%,4.2 nM,–
"CCC1=NC2(CCOC2)C(=O)N1Cc1ccc(-c2cc(-c3ccccc3)ccc2-c2nn[nH]n2)cc1 (single isomer, unassigned) [Example 165]",56.8 nM,45.7%,17.7%,192 nM,–,–,–,–,14.1%,262 nM,281 nM
Cc1ccnc(-c2ccc(-c3nn[nH]n3)c(-c3ccc(CN4C(=O)C5(CCCC5)N=C4C(C)C)cc3)c2)c1 [Example 118],66 nM,50.0%,17.1%,155 nM,–,–,78.7%,173 nM,21.8%,102 nM,–
CCc1nc2c(C)cc(C)nc2n1Cc1ccc(-c2cc(-n3cc(C)nn3)ccc2-c2nnn[nH]2)cc1 [Example 232],16.9 nM,41.5%,7.5%,60 nM,–,–,–,–,–,> 100000 nM,101 nM
